Measurements as given in patent US5567716A, “Trans and cis traumatic acid salts having cicatrizant activity associated to bacteriostatic, antiviral, antibiotic or antifungal activity” (priority 1992, dated 1996).

Columns and labels:
[1] = test system: Aspergillus Niger ATCC 16404; test: Antibacterial activity, diffusion method in agar-germs (2.a); type: cell-based; parameters: unit not given here
Method: (§1) In a Tryprone Soy Agar diffusion medium ATCC (American Type Culture Collection) standard bacterial strains are inoculated, preparing a final solution of 10^6 cfu/g (colony forming unities) of the following strains:
(§2) Every plate contains 20 ml of a medium where 2 equidistant wells having a standard diameter are Formed and in each of these wells […] of the above described bacterial solution are inoculated. 2 plates are prepared for every couple of compounds to be tested at different concentrations, and For every strain, and each of these plates is compared with a white (sterile demineralized water inoculum). After the inoculum, the plates are placed in the refrigerator to favour diffusion and temporaneously blocking bacterial growth.
(§3) The compounds hexadecyltrimethylammonium traumatate and benzyldimethylhexadecylammonium traumatare respectively versus hexadecyl trimethylammonium bromide and benzyldimethylhexadecylammonium chloride are solubilized in demineralized water to Form solutions at the concentrations: 0.1; 0.5; and 1%.
(§4) The antibacterial effect is evaluated by measuring bacterial diffusion halo around the well vs white (halo absence).

[2] = test system: Stafilococcus Aureus ATCC.65380; test: as above; type: cell-based; parameters: unit not given here
Method: as §1, §2, §3, §4

[3] = test system: Streptococcus Fecalis ATCC.291212; test: as above; type: cell-based; parameters: unit not given here
Method: as §1, §2, §3, §4

[4] = test system: Stafilococcus Epidermidis ATCC.14990; test: as above; type: cell-based; parameters: unit not given here
Method: as §1, §2, §3, §4

[5] = test system: Candida Albicans ATCC.10231; test: as above; type: cell-based; parameters: unit not given here
Method: as §1, §2, §3, §4

[6] = test system: PS Cepacia ATCC.25416; test: as above; type: cell-based; parameters: unit not given here
Method: as §1, §2, §3, §4

[7] = test system: C.albicans ATCC 10231; test: Evaluation of bacteriostatic minimal concentration (BMC); type: cell-based; conditions: Table 2.b)6; test concentrations given in μg/ml
Method: (§5) 1. Culture Medium: Tryprone Soy Broth (TBS) - Biogenetics
(§6) Microbic standard strains from American Type Culture Collection (ATCC) were used, chosen among aerobic Gram positive and negative as follows:
(§7) The broths culture of the different species are prepared growing the standard strain (kept in Tryptic Soy Agar (TSA) slent at 5° C.) in Tryptone Soy Broth (TSB) for 12 hours at 37° C. 10 ml are then taken up from each culture, centrifugated for 3 times at 3500 PM washing each time the sediment using 10 ml of sterile saline solution. The sediment is resuspended in the saline solution until obtainment of a turbidity corresponding to the Mc Farland standard solution (the suspension title must be […] UFC/ml).
(§8) The compounds, dissolved as stock solution, were added to test tubes containing 5 ml TBS in order to obtain the desired Final concentration 10000; 5000; 1000; 200; 40; 2; 0.4; 0.05 μg/ml (culture medium maximal dilution=1/10).
(§9) 50 μl of bacterial suspension are added to the tube containing the compounds to be tested and incubated at 37° C.: the densitometric determination is made in comparison with Mc Farland standard solution 24 and 48 hours later.
(§10) After the incubation time the suspensions ape gently agitated; 50 μl of each suspension are inoculated in tubes containing […] of TSB and incubated at 37° C.; the densitometric determination is made 48 hours later.
(§11) BMC is defined by comparison between the two densitometric evaluation.

[8] = test system: Ps.aeruginosa ATCC 35422; test: as above; type: cell-based; conditions: Table 2.b)1; test concentrations given in μg/ml
Method: as §5, §6, §7, §8, §9, §10, §11

[9] = test system: B.subtilis ATCC 6633; test: as above; type: cell-based; conditions: Table 2.b)5; test concentrations given in μg/ml
Method: as §5, §6, §7, §8, §9, §10, §11

[10] = test system: St.epidermidis ATCC 14990; test: as above; type: cell-based; conditions: Table 2.b)4; test concentrations given in μg/ml
Method: as §5, §6, §7, §8, §9, §10, §11

[11] = test system: St.aureus ATCC 65380; test: as above; type: cell-based; conditions: Table 2.b)2; test concentrations given in μg/ml
Method: as §5, §6, §7, §8, §9, §10, §11

[12] = test system: E.coli ATCC 35218; test: microbe, parasite or virus in culture; type: cell-based; conditions: Table 2.b)3; test concentrations given in μg/ml
Method: as §5, §6, §7, §8, §9, §10, §11

[13] = Physical chemical characteristics: solubility in water and organic solvents
[14] = test system: PS Maltophila ATCC.13637; test: Antibacterial activity, diffusion method in agar-germs (2.a); type: cell-based
Method: as §1, §2, §3, §4

[15] = test system: Pseudomonas Aeruginosa ATCC.35422; test: as above; type: cell-based
Method: as §1, §2, §3, §4

[16] = test system: E. Coli ATCC.35218; test: as above; type: cell-based
Method: as §1, §2, §3, §4

[17] = test system: standard bacterial strains; test: Antibacterial activity, diffusion method in agar-germs, all strains (2.a); type: cell-based; conditions: versus hexadecyltrimethylammonium bromide and benzyldimethylhexadecylammonium chloride; in words
Method: as §1, §2, §3, §4

[18] = test system: 3T3 fibroblasts; test: Cellular proliferation of 3T3 fibroblasts, neutral red colorimetry (1.1a); type: cell-based, Mice
Method: Experiments on 3T3 fibroblasts
Mice 3T3 fibroblasts cultures sown at a 40.000/ml concentration on plates having 6 wells in a DMEM culture medium enriched with 10% calf serum are used. After 24 hours culture, the 90 prepared wells are divided in order to allow the analyses of the compounds of the invention, every compound to be tested being used respectively at a concentration of 0.1, 1 and 10 μg/ml by subsequent evaluations after 48 and 72 hours of incubation.
Hexadecyltrimethylammoniun (ETA) traumatare: solubilized in water and brought to the desired final concentrations of 0.1. 1 and 10 μg/ml by progressive dilutions;
Ethanolamine traumatate: solubilized in water and brought to the final concentrations of 0.1, 1 and 10 μg/ml by progressive dilutions;
Traumatic acid: neutralized with sodium hydroxyde and solubilized in water, then brought to the final concentrations of 0.1, 1 and 10 μg/ml by progressive dilutions with the culture medium.
The compounds are added to the cells after 24 hours culture. The cells number is measured by colorimetry with the neutral red intravital stain after 24, 48, 72 hours of incubation.

benzylmethylhexadecylammonium trans-traumatate
bacterial diffusion halo ([1]; sol. 0.1%): 12
bacterial diffusion halo ([1]; sol. 0.5%): 16
bacterial diffusion halo ([1]; sol. 1%): 19
bacterial diffusion halo ([2]; sol. 0.1%): 17
bacterial diffusion halo ([2]; sol. 0.5%): 22
bacterial diffusion halo ([2]; sol. 1%): 22
bacterial diffusion halo ([3]; sol. 0.1%): 12
bacterial diffusion halo ([3]; sol. 0.5%): 14
bacterial diffusion halo ([3]; sol. 1%): 15
bacterial diffusion halo ([4]; sol. 0.1%): 15
bacterial diffusion halo ([4]; sol. 0.5%): 17
bacterial diffusion halo ([4]; sol. 1%): 19
bacterial diffusion halo ([5]; sol. 0.1%): 13
bacterial diffusion halo ([5]; sol. 0.5%): 15
bacterial diffusion halo ([5]; sol. 1%): 16
bacterial diffusion halo ([6]; sol. 0.1%): 12
bacterial diffusion halo ([6]; sol. 0.5%): 15
bacterial diffusion halo ([6]; sol. 1%): 15
MINIMAL BACTERIAL CONCENTRATION [7]: 2.00
MINIMAL BACTERIAL CONCENTRATION [8]: 10,000.00
MINIMAL BACTERIAL CONCENTRATION [9]: 1,000.00
MINIMAL BACTERIAL CONCENTRATION [10]: 2.00
MINIMAL BACTERIAL CONCENTRATION [11]: 1,000.00
MINIMAL BACTERIAL CONCENTRATION [12]: 200.00
organic solvent solubility ([13]; in ethanol): > 20 mg/mL
solubility in water ([13]; water): > 10 mg/mL
bacterial diffusion halo ([14]; sol. 0.1%): n.h.
bacterial diffusion halo ([14]; sol. 0.5%): n.h.
bacterial diffusion halo ([14]; sol. 1%): 15
bacterial diffusion halo ([15]; sol. 0.1%): n.h.
bacterial diffusion halo ([15]; sol. 0.5%): 12
bacterial diffusion halo ([15]; sol. 1%): 14
bacterial diffusion halo ([16]; sol. 0.1%): n.h.
bacterial diffusion halo ([16]; sol. 0.5%): n.h.
bacterial diffusion halo ([16]; sol. 1%): 13
antibacterial and bacteriostatic activity profile [17]: antibacterial and bacteriostatic activity profile comparable to that of the comparison products

hexadecyltrimethylammonium trans-traumatate [Hexadecyltrimethyl Ammonium Traumatate]
effect on cells proliferation ([18]; 0.1 μg/ml, in words): able to affect cells proliferation according to a not statistically significant trend
effect on cellular proliferation ([18]; 1 μg/ml, in words, ETA salt > ethanolamine salt = traumatic acid): able to increase cellular proliferation
cells numeration (colorimetric, neutral red) ([18]; 24 hours of incubation, 0.1 (head: μg/ml), control 0.579 ± 0.021): 0.575 ± 0.041
cells numeration (colorimetric, neutral red) ([18]; 24 hours of incubation, 1.0 (head: μg/ml), control 0.579 ± 0.021): 0.619 ± 0.033
cells numeration (colorimetric, neutral red) ([18]; 24 hours of incubation, 10.0 (head: μg/ml), control 0.579 ± 0.021): 0.491 ± 0.021
cells numeration (colorimetric, neutral red) ([18]; 48 hours of incubation, 0.1 (head: μg/ml), control 1.334 ± 0.050): 1.553 ± 0.061
cells numeration (colorimetric, neutral red) ([18]; 48 hours of incubation, 1.0 (head: μg/ml), control 1.334 ± 0.050): 1.501 ± 0.081
cells numeration (colorimetric, neutral red) ([18]; 48 hours of incubation, 10.0 (head: μg/ml), control 1.334 ± 0.050, ** p < 0.01 significant reduction): 0.842 ± 0.078
cells numeration (colorimetric, neutral red) ([18]; 72 hours of incubation, 0.1 (head: μg/ml), control 2.360 ± 0.125): 2.501 ± 0.131
cells numeration (colorimetric, neutral red) ([18]; 72 hours of incubation, 1.0 (head: μg/ml), control 2.360 ± 0.125): 2.503 ± 0.100
cells numeration (colorimetric, neutral red) ([18]; 72 hours of incubation, 10.0 (head: μg/ml), control 2.360 ± 0.125, ** p < 0.01 significant reduction): 1.385 ± 1.63
time necessary for the cells to reach the confluence ([18]; side control experiment, ETA and ethanolamine salts > traumatic acid): reduce the time normally necessary for the cells to reach the confluence
bacterial diffusion halo ([1]; sol. 0.1%): 19
bacterial diffusion halo ([1]; sol. 0.5%): 22
bacterial diffusion halo ([1]; sol. 1%): 22
bacterial diffusion halo ([2]; sol. 0.1%): 21
bacterial diffusion halo ([2]; sol. 0.5%): 24
bacterial diffusion halo ([2]; sol. 1%): 24
bacterial diffusion halo ([3]; sol. 0.1%): 20
bacterial diffusion halo ([3]; sol. 0.5%): 22
bacterial diffusion halo ([3]; sol. 1%): 22
bacterial diffusion halo ([4]; sol. 0.1%): 20
bacterial diffusion halo ([4]; sol. 0.5%): 22
bacterial diffusion halo ([4]; sol. 1%): 22
bacterial diffusion halo ([5]; sol. 0.1%): 19
bacterial diffusion halo ([5]; sol. 0.5%): 24
bacterial diffusion halo ([5]; sol. 1%): 25
bacterial diffusion halo ([6]; sol. 0.1%): 18
bacterial diffusion halo ([6]; sol. 0.5%): 19
bacterial diffusion halo ([6]; sol. 1%): 22
MINIMAL BACTERIAL CONCENTRATION [7]: 2.00
MINIMAL BACTERIAL CONCENTRATION [8]: > 10,000
MINIMAL BACTERIAL CONCENTRATION [9]: 2.00
MINIMAL BACTERIAL CONCENTRATION [10]: 8.00
MINIMAL BACTERIAL CONCENTRATION [11]: 1,000.00
MINIMAL BACTERIAL CONCENTRATION [12]: 200.00
bacterial diffusion halo ([14]; sol. 0.1%): n.h.
bacterial diffusion halo ([14]; sol. 0.5%): 15
bacterial diffusion halo ([14]; sol. 1%): 21
bacterial diffusion halo ([15]; sol. 0.1%): n.h.
bacterial diffusion halo ([15]; sol. 0.5%): n.h.
bacterial diffusion halo ([15]; sol. 1%): n.h.
bacterial diffusion halo ([16]; sol. 0.1%): n.h.
bacterial diffusion halo ([16]; sol. 0.5%): 13
bacterial diffusion halo ([16]; sol. 1%): 15
antibacterial and bacteriostatic activity profile [17]: antibacterial and bacteriostatic activity profile comparable to that of the comparison products
